Measured values published in article PMC4516925, “Three Peptide Modulators of the Human Voltage-Gated Sodium Channel 1.7, an Important Analgesic Target, from the Venom of an Australian Tarantula” (Toxins, 2015).
“Also recorded” adds a separate entry of the source. Where a SMILES comes first, the peptide text is derived from it. Bridges are numbered along the chain shown (N, C = ends).

Experiments:
[1] = molecular target: T1, hNaV1.7 (Homo sapiens, UniProt Q15858); assay: Current-voltage (I-V) relationship / V0.5 of activation of hNaV1.7; format: cell-based; settings: 300 nM and 1 μM; n = 6
T1 construct: expressed in transfected cells; host or cells: Xenopus oocytes (cRNA injection)
T1 sequence (Q15858 whole entry): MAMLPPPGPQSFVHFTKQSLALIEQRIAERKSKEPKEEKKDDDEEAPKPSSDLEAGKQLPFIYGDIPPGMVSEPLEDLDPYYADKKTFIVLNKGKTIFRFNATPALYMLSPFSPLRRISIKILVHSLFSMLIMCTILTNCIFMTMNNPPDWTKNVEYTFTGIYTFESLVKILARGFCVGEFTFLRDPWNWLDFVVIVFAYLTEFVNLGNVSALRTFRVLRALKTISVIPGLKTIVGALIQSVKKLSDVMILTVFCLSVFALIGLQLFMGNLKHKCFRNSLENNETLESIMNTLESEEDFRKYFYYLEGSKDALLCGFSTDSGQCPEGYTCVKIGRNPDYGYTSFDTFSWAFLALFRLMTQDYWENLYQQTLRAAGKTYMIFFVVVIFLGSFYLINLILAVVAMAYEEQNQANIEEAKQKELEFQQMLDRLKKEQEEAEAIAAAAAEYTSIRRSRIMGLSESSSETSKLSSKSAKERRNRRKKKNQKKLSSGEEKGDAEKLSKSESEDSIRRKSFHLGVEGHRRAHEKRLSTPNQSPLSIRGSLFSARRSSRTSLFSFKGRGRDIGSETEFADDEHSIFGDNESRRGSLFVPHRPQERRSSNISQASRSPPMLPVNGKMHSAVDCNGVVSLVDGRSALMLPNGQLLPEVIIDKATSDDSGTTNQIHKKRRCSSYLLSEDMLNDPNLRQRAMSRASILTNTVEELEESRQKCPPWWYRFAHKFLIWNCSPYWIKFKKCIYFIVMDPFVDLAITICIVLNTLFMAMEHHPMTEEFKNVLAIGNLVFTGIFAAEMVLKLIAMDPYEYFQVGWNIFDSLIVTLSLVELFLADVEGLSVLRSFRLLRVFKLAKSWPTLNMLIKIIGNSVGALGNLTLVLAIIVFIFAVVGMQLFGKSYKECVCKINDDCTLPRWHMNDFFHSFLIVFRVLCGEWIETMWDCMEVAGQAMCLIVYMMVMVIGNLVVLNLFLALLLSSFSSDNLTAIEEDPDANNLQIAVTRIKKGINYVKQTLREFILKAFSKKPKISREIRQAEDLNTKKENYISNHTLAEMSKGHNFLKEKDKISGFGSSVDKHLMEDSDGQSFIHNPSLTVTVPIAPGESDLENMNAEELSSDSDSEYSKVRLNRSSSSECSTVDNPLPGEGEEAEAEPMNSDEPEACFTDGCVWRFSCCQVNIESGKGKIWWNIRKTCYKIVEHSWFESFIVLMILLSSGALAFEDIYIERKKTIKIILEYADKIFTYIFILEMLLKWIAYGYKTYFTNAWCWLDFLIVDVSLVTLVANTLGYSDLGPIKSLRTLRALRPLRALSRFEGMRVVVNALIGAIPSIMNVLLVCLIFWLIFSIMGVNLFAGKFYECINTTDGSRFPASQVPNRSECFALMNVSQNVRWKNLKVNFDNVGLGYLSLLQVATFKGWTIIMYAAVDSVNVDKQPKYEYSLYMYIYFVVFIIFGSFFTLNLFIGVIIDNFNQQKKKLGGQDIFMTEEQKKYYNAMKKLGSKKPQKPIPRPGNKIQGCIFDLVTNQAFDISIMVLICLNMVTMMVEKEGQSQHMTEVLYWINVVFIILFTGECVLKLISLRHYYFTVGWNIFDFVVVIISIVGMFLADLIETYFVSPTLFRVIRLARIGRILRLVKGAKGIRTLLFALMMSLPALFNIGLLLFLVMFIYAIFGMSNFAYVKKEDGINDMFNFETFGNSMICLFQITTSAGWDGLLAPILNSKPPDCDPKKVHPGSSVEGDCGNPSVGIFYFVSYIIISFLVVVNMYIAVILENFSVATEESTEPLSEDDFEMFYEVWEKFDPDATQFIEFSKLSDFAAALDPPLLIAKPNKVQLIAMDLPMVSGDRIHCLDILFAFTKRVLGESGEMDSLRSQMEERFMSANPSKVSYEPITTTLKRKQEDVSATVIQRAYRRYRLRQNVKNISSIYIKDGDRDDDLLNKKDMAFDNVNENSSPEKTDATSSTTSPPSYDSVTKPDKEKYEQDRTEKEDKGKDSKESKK
Description: Plasmids containing cloned rNaV1.2, hNaV1.5 and hNaV1.7 were linearised, then capped cRNAs were synthesised using a T7 mMESSAGE-mMACHINE transcription kit (Ambion, Austin, TX, USA). Stage V-VI oocytes were obtained from anesthetised Xenopus frogs and prepared as previously described. Oocytes were injected with 20–40 ng of cRNA (Nanoject 2000; WPI, Sarasota, FL, USA) and incubated for 2–6 days at 17 °C in ND96 solution (96 mM NaCl, 2 mM KCl, 1 mM CaCl2, 2 mM MgCl2, 5 mM HEPES, pH 7.4), supplemented with 2.5 mM sodium pyruvate, 50 μg/mL gentamicin and 2.5% horse serum prior to electrophysiological recordings. All work with animals was carried out in strict accordance with the recommendations in the Australian code of practice for the care and use of animals for scientific purposes. The protocol was approved by the Anatomical Biosciences group of the Animal Ethics Committee at The University of Queensland (Approval Number QBI/059/13/ARC/NHMRC). […]
(§1) NaV channel recordings were performed on oocytes clamped at −80 mV. […] Data were analysed using Clampfit 10.2 and Prism 6.0 (GrahPad Software, La Jolla, CA, USA, 2013). […] Data were normalised to the maximal peak current and analysed using Clampfit 10.2 and Prism 6.0.

[2] = molecular target: T2, rNaV1.2 (Rattus norvegicus, UniProt P04775); assay: Inhibition of rNaV1.2 currents, two-electrode voltage clamp in Xenopus oocytes; format: cell-based; settings: TEVC; for inhibition at 1 µM: 1 μM peptide, 50-ms step to 0 mV from −80 mV every 10 s
T2 construct: expressed in transfected cells; host or cells: Xenopus oocytes (cRNA injection)
T2 sequence (P04775 whole entry): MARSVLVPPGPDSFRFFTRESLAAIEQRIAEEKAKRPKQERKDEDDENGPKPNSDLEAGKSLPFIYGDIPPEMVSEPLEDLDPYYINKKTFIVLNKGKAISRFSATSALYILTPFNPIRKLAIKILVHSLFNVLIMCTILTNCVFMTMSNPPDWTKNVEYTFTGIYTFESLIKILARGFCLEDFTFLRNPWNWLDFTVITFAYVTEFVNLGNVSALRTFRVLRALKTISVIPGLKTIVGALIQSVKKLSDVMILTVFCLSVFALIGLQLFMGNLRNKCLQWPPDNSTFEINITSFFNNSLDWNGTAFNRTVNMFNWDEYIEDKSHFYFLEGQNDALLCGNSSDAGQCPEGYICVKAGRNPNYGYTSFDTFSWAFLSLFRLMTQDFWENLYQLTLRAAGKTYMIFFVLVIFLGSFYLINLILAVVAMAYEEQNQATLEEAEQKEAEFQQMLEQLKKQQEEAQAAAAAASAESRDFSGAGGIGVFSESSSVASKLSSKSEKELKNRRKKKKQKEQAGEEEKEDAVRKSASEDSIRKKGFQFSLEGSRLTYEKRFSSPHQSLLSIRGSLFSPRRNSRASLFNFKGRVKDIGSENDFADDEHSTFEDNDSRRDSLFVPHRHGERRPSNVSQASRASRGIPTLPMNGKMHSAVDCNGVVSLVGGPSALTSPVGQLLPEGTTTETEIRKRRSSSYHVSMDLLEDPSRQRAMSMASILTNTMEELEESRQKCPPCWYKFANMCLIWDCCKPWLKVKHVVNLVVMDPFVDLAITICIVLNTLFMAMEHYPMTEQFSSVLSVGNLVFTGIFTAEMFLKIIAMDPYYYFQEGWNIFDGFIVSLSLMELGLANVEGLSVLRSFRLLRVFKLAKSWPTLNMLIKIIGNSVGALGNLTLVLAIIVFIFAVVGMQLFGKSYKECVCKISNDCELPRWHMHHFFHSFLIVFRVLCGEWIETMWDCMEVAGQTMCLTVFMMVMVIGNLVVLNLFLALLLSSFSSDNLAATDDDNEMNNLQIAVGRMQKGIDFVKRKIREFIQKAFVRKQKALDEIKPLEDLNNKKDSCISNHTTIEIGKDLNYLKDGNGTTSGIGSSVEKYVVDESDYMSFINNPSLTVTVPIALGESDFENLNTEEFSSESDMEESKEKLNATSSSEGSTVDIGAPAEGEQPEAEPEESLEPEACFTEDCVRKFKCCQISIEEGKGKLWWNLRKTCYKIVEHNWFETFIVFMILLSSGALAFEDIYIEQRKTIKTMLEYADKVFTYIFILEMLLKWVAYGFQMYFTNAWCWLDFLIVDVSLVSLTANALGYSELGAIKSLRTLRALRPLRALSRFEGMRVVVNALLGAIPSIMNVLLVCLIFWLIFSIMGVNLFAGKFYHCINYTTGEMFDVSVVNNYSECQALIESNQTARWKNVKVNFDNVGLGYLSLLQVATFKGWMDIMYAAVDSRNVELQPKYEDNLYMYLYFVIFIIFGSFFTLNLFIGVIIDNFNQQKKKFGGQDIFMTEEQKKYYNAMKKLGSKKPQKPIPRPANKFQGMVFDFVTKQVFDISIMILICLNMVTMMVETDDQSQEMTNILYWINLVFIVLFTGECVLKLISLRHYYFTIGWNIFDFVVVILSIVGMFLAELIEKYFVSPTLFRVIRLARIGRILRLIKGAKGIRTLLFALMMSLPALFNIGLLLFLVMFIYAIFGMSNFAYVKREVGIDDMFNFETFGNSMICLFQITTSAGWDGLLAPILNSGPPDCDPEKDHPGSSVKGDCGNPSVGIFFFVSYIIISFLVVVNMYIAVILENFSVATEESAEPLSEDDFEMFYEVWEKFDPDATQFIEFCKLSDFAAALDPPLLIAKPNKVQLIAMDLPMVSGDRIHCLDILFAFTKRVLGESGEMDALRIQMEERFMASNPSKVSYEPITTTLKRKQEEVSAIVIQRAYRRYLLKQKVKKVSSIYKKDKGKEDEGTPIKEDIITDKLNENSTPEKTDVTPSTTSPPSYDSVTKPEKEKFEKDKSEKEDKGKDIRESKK
Description: (§2) Plasmids containing cloned rNaV1.2, hNaV1.5 and hNaV1.7 were linearised, then capped cRNAs were synthesised using a T7 mMESSAGE-mMACHINE transcription kit (Ambion, Austin, TX, USA). Stage V-VI oocytes were obtained from anesthetised Xenopus frogs and prepared as previously described. Oocytes were injected with 20–40 ng of cRNA (Nanoject 2000; WPI, Sarasota, FL, USA) and incubated for 2–6 days at 17 °C in ND96 solution (96 mM NaCl, 2 mM KCl, 1 mM CaCl2, 2 mM MgCl2, 5 mM HEPES, pH 7.4), supplemented with 2.5 mM sodium pyruvate, 50 μg/mL gentamicin and 2.5% horse serum prior to electrophysiological recordings. All work with animals was carried out in strict accordance with the recommendations in the Australian code of practice for the care and use of animals for scientific purposes. The protocol was approved by the Anatomical Biosciences group of the Animal Ethics Committee at The University of Queensland (Approval Number QBI/059/13/ARC/NHMRC).
(§3) Two-electrode voltage clamp (TEVC) recordings were performed at room temperature (20 °C–22 °C) under voltage-clamp (Axoclamp 900A, Molecular Devices, Sunnyvale, CA, USA) using two standard glass microelectrodes of 0.5–1 MΩ resistance when filled with 3 M KCl solution. Stimulation, data acquisition, and analysis were performed using pCLAMP software (Version 10, Molecular Devices, Sunnyvale, CA, USA). Peptide stock solutions were made up to 30 μM, and serial dilutions were prepared in ND96 solution (pH 7.4) containing 0.1% bovine serum albumin (BSA). Venom peptides were applied directly to the recording chamber to prevent adsorption to plastics.
NaV channel recordings were performed on oocytes clamped at −80 mV. Data were sampled at 20 kHz and filtered at 2 kHz. Inward sodium currents were elicited by a 50-ms depolarising step to 0 mV every 10 s. Once the peak current had stabilised (typically ~3 min), serial dilutions of peptides were applied to oocytes to obtain concentration-effect curves. Data were analysed using Clampfit 10.2 and Prism 6.0 (GrahPad Software, La Jolla, CA, USA, 2013). The Hill equation was fit to the data to obtain the half-maximal inhibitory concentration (IC50) values and Hill coefficient (nH). Data are presented as mean ± S.E.M. (n = number of oocytes). I-V relationships in the absence and presence of 300 nM and 1 μM peptide were obtained on oocytes clamped at −80 mV; families of currents were evoked by applying 50-ms depolarising steps from −60 mV to +70 mV with 10-mV increments every 10 s. […] Data were normalised to the maximal peak current and analysed using Clampfit 10.2 and Prism 6.0.

[3] = molecular target: T1, hNaV1.7; assay: Inhibition of hNaV1.7 currents, two-electrode voltage clamp in Xenopus oocytes; format: cell-based; settings: TEVC; for IC50 / Hill coefficient, inhibition of hNaV1.7: Xenopus oocytes, n = 5–7; for IC50: 50-ms step to 0 mV from −80 mV every 10 s, ND96 pH 7.4 with 0.1% BSA, 20 °C–22 °C, Hill equation, mean ± S.E.M.; for Selectivity, hNaV1.7 versus rNaV1.2 and hNaV1.5 (in words): comparison with rNaV1.2 and hNaV1.5, Xenopus oocytes; for Hill coefficient, inhibition of hNaV1.7: from concentration-effect curve
Description: as §2, §3
NaV channel recordings were performed on oocytes clamped at −80 mV. Data were sampled at 20 kHz and filtered at 2 kHz. Inward sodium currents were elicited by a 50-ms depolarising step to 0 mV every 10 s. Once the peak current had stabilised (typically ~3 min), serial dilutions of peptides were applied to oocytes to obtain concentration-effect curves. Data were analysed using Clampfit 10.2 and Prism 6.0 (GrahPad Software, La Jolla, CA, USA, 2013). The Hill equation was fit to the data to obtain the half-maximal inhibitory concentration (IC50) values and Hill coefficient (nH). Data are presented as mean ± S.E.M. (n = number of oocytes). I-V relationships in the absence and presence of 300 nM and 1 μM peptide were obtained on oocytes clamped at −80 mV; families of currents were evoked by applying 50-ms depolarising steps from −60 mV to +70 mV with 10-mV increments every 10 s. After acquiring the control I–V curve, the first concentration of peptide was added and the inhibitory effect was allowed to plateau (a test pulse from −80 to 0 mV every 10 s) before obtaining an I–V curve in the presence of peptide. This was repeated for the second concentration of peptide. Data were normalised to the maximal peak current and analysed using Clampfit 10.2 and Prism 6.0.

[4] = molecular target: T3, hNaV1.5 (Homo sapiens, UniProt Q14524); assay: Inhibition of hNaV1.5 currents, two-electrode voltage clamp in Xenopus oocytes; format: cell-based; settings: TEVC
T3 construct: expressed in transfected cells; host or cells: Xenopus oocytes (cRNA injection)
Description: as §2, §3
as §1, with “mV. Data were sampled at 20 kHz and filtered at 2 kHz. Inward sodium currents were elicited by a 50-ms depolarising step to 0 mV every 10 s.” for “mV.”

[5] = molecular target: T1, hNaV1.7; settings: cited from earlier work
[6] = system: NaV channels; settings: cited from earlier work
From the text: Approximately 12% of spider toxins are C-terminally amidated. In addition to a possible role in peptide stability, C-terminal amidation can modulate biological activity. The 35-residue spider-venom peptide huwentoxin-IV (HwTx-IV) is a member of NaSpTx Family 1 isolated from venom of the tarantula Haplopelma schmidti (formerly known as Ornithoctonus huwena). Remarkably, native HwTx-IV with C-terminal amidation inhibits hNaV1.7 with is ~50-fold higher potency than a recombinant version with a C-terminal carboxylate group. […] Thus, we investigated the effects of Phlogius peptides on the current-voltage (I-V) relationship for hNaV1.7 using step-depolarisations ranging from −60 to +70 mV from a holding potential of −80 mV.

[7] = system: human NaV1.8; settings: cited from earlier work
From the text: (§4) Approximately 12% of spider toxins are C-terminally amidated. In addition to a possible role in peptide stability, C-terminal amidation can modulate biological activity. The 35-residue spider-venom peptide huwentoxin-IV (HwTx-IV) is a member of NaSpTx Family 1 isolated from venom of the tarantula Haplopelma schmidti (formerly known as Ornithoctonus huwena). Remarkably, native HwTx-IV with C-terminal amidation inhibits hNaV1.7 with is ~50-fold higher potency than a recombinant version with a C-terminal carboxylate group. Although not in the same peptide family as HwTx-IV (NaSpTx F ...

[8] = system: human NaV1.5; settings: cited from earlier work
From the text: as §4

[9] = system: sodium channel domain II voltage sensor; settings: gating modifier; cited from earlier work
[10] = system: NaV1.2; settings: cited from earlier work
[11] = system: NaV1.2; settings: chimeric KV1.2/NaV1.2 channels; rat NaV1.2; cited from earlier work
[12] = system: NaV1.5; settings: cited from earlier work

| Compound | Effect on I-V relationship of hNaV1.7 (in words) [1] | inhibition at 1 µM [2] | Effect on rNaV1.2 (in words) [2] | IC50 [3] | Selectivity, hNaV1.7 versus rNaV1.2 and hNaV1.5 (in words) [3] | Hill coefficient, inhibition of hNaV1.7 [3] | Effect on hNaV1.5 (in words) [4] | other results |
| --- | --- | --- | --- | --- | --- | --- | --- | --- |
| CC[C@H](C)[C@H](NC(=O)[C@@H](NC(=O)[C@H](Cc1c[nH]c2ccccc12)NC(=O)[C@H](CC(=O)O)NC(=O)[C@H](Cc1c[nH]c2ccccc12)NC(=O)[C@@H](NC(=O)[C@@H]1CSSC[C@@H]2NC(=O)[C@H](CC(=O)O)NC(=O)[C@H](CO)NC(=O)[C@H](CC(=O)O)NC(=O)[C@H](CCCCN)NC(=O)[C@H](CO)NC(=O)[C@@H]3CSSC[C@H](NC(=O)[C@H](CCC(=O)O)NC(=O)[C@H](CC(C)C)NC(=O)[C@H](Cc4c[nH]cn4)NC(=O)[C@H](C)NC(=O)[C@H](CSSC[C@H](NC(=O)[C@H](C)N)C(=O)N[C@@H](CCCNC(=N)N)C(=O)N[C@@H](CCC(=O)O)C(=O)N[C@@H](CC(C)C)C(=O)N[C@@H](CC(C)C)C(=O)NCC(=O)NCC(=O)N3)NC2=O)C(=O)N[C@@H](CCCNC(=N)N)C(=O)N[C@@H](CCCCN)C(=O)N[C@@H](CCCCN)C(=O)N[C@@H](Cc2c[nH]c3ccccc23)C(=O)N2CCC[C@H]2C(=O)N[C@@H](Cc2ccc(O)cc2)C(=O)N[C@@H](Cc2c[nH]cn2)C(=O)N1)C(C)C)[C@@H](C)O)C(N)=O [Phlo1a] (H-ACRELLGGCSKDSDCCAHLECRKKWPYHCVWDWTI-NH2; disulfide 2-16, 9-21, 15-29 (inferred); N-terminus assumed) | concentration-dependent, depolarising shifts in the I-V relationship for hNaV1.7 | < 20% | only minor inhibitory activity | 459 nM | inhibited rNaV1.2 and hNaV1.5 much less potently than hNaV1.7; also recorded: inhibit hNaV1.7 more potently than rNaV1.2 and hNaV1.5; also recorded: high level of selectivity for NaV1.7 over NaV1.2 and NaV1.5 | 0.87 | only minor inhibitory activity | inhibition at 1 µM ([4]; 1 μM peptide, 50-ms step to 0 mV from −80 mV every 10 s): < 20% |
| CC(C)C[C@@H]1NC(=O)[C@H](CC(C)C)NC(=O)[C@H](CCC(=O)O)NC(=O)[C@H](CCCNC(=N)N)NC(=O)[C@@H](NC(=O)[C@H](C)N)CSSC[C@@H]2NC(=O)[C@@H]3CSSC[C@@H](C(=O)N[C@H](C(=O)N[C@@H](Cc4c[nH]c5ccccc45)C(=O)N[C@@H](CC(=O)O)C(=O)N[C@@H](Cc4c[nH]c5ccccc45)C(=O)N[C@H](C(=O)N[C@@H](Cc4ccccc4)C(N)=O)[C@@H](C)O)C(C)C)NC(=O)[C@H](Cc4c[nH]cn4)NC(=O)[C@H](Cc4ccc(O)cc4)NC(=O)[C@@H]4CCCN4C(=O)[C@H](Cc4c[nH]c5ccccc45)NC(=O)[C@H](CCCCN)NC(=O)[C@H](CCCCN)NC(=O)[C@H](CCCNC(=N)N)NC(=O)[C@H](CSSC[C@H](NC(=O)CNC(=O)CNC1=O)C(=O)N[C@@H](CO)C(=O)N[C@@H](CCCCN)C(=O)N[C@@H](CC(=O)O)C(=O)N[C@@H](CO)C(=O)N[C@@H](CC(=O)O)C(=O)N3)NC(=O)[C@H](CCC(=O)O)NC(=O)[C@H](CC(C)C)NC(=O)[C@H](Cc1c[nH]cn1)NC(=O)[C@H](C)NC2=O [Phlo1b] (H-ACRELLGGCSKDSDCCAHLECRKKWPYHCVWDWTF-NH2; disulfide 2-16, 9-21, 15-29 (inferred); N-terminus assumed) | concentration-dependent, depolarising shifts in the I-V relationship for hNaV1.7 | 37% | only minor inhibitory activity; also recorded: slightly more potent at rNaV1.2 | 360 nM | inhibit hNaV1.7 more potently than rNaV1.2 and hNaV1.5 | 1.04 | only minor inhibitory activity; also recorded: a similar effect as Phlo1a at hNaV1.5 |  |
| HwTx-IV |  |  |  |  |  |  |  | Fold higher potency at hNaV1.7, native amidated vs recombinant C-terminal carboxylate ([5]; native HwTx-IV (C-terminal amide) versus recombinant version with C-terminal carboxylate, no reference printed at the sentence (isolation: ref 24)): ~ 50 fold |
| ProTx-I |  |  |  |  |  |  |  | Effect on NaV channel activation (in words) [6]: inhibit NaV channels by shifting the threshold for channel activation to more positive potentials; Blockade of human NaV1.8 (in words) [7]: potent blocker; Blockade of human NaV1.5 (in words) [8]: potent blocker; Blockade of human NaV1.7 (in words) [5]: potent blocker |
| ProTx-II: most potent blocker of hNaV1.7 within NaSpTx family 3 |  |  |  |  |  |  |  | Activity (channel type), NaSpTx3 alignment ([6]; Figure 8C annotation, no reference given): Nav; Mechanism of sodium conductance reduction (in words) [9]: reduces sodium conductance by trapping the domain II voltage sensor in the closed state; IC50 [10]: 41 nM; Voltage sensors bound (in words) [11]: binds to the voltage sensors in domains I, II and IV of rat NaV1.2; also recorded: binding to the voltage sensors in domains I, II (receptor site 4), and IV (receptor site 3) of NaV1.2; IC50 [12]: 79 nM; Binding to NaV1.5 receptor site 4 (in words) ([12]; mutagenesis study of NaV1.5): does not bind to receptor site 4 on the domain II voltage sensor; Effect on NaV1.5 gating (in words) ([12]; voltage-dependence of activation): shifts the voltage-dependence of activation of NaV1.5 to more positive potentials |
